Data reported in patent US20060240026A1, “Preventing and/or remedy hematopoietic tumor” (GREEN PEPTIDE CO., LTD., priority 2003, published 2006).
Entries after “also recorded” stand apart in the source; their conditions may differ. Ends that are not written are not given here.

What was measured:
[1] = Side effects and skin test, chronic lymphocytic leukemia patient; type: in vivo, human
Procedure: Three kinds of emulsions each of which contains each of these peptides respectively and an adjuvant were prepared according to the method described in Example 1, and vaccinated to the patient by injecting subcutaneously at different sites of the patient's lateral thigh. […] The skin test was conducted by injecting intradermally the solution of 50 μg of each peptide in physiological saline and determining immediate-type or delayed-type hypersensitivity reaction at 20 minutes or 24 hours after the injection.
Therefore, SART-293 (SEQ ID NO: 5) and SART-3109 (SEQ ID NO: 8) were used for vaccination. […] In the clinical trials of peptide vaccines in epithelial cancer patients, there has been observed a correlation between the survival rate of patients and the increased humoral immune responses against the peptides used in the vaccines. From these facts, it was believed that SART-293 (SEQ ID NO: 5) and SART-3109 (SEQ ID NO: 8) were effective in this patient.
Thus, there were very few side effects observed.

[2] = tested on: PBMCs of HLA-A24+ patients with hematologic malignancies; assay: IFN-γ production by peptide-stimulated patient PBMCs in response to peptide-pulsed C1R-A24 cells; type: cell-based, human; parameters: peptide-specific IFN-γ production: unit not given here; conditions: for peptide-specific IFN-γ production: 10 μM peptide in vitro, vs peptide-pulsed C1R-A24, HIV-peptide background subtracted
Procedure: The induction of peptide-specific cytotoxic T lymphocytes from PBMCs of a patient with hematologic malignancy was conducted as reported preveously (Non-Patent Reference 5). The following peptides were used to induce cytotoxic T lymphocytes: p56^lck protein-derived peptides (Lck208 (SEQ ID NO: 1), Lck488 (SEQ ID NO: 2) and Lck486 (SEQ ID NO: 3)); SART-1-derived peptide (SART-1690 (SEQ ID NO: 4)); SART-2-derived peptides (SART-293 (SEQ ID NO: 5), SART-2161 (SEQ ID NO: 6) and SART-2899 (SEQ ID NO: 7)); SART-3-derived peptides (SART-3109 (SEQ ID NO: 8) and SART-3315 (SEQ ID NO: 9)); and ART-1-derived peptide (ART-1170 (SEQ ID NO: 10)). All of these peptides are the epithelial cancer-related antigen-derived peptides and have the ability to induce cytotoxic T lymphocytes from PBMCs of an epithelial cancer patient in an HLA-A24 dependent manner (Non-Patent References 3-6 and 12). A human immunodeficiency virus (HIV)-derived peptide (SEQ ID NO: 11) and Epstein-Barr virus (EBV)-derived peptide (SEQ ID NO: 12) were used respectively as a negative control peptide and positive control peptide both of which have an HLA-A24-binding motif. […] PBMCs were prepared from peripheral blood that was collected from a patient with hematologic malignancy using Ficoll-Conray density-gradient centrifugation. The expression of HLA-A24 molecules on PBMCs was determined using flow cytometry by a well known method (Non-Patent Reference 5). The induction of cytotoxic T lymphocytes from PBMCs was conducted as follows. […] The culture medium consisted of 45% RPMI-1640, 45% AIM-V (Invitrogen), 10% FCS, 100 U/ml of interleukin-2 (IL-2), and 0.1 mM MEM non-essential amino acid solution (Invitrogen). […] The background IFN-γ production in response to the HIV-derived peptide (SEQ ID NO: 11) was subtracted from the values given in the data. When the mean value of the IFN-γ produced from the peptide-stimulated PBMCs in response to a corresponding peptide was higher than that produced in response to the HIV peptide (SEQ ID NO: 11), it was judged that the precursor of a peptide-specific cytotoxic T lymphocyte was present in the PBMCs and that the peptide-specific cytotoxic T lymphocytes were induced by the peptide. PBMCs of ten cases of HLA-A24^+ patients with hematologic malignancies (two cases with CLL, one case with MCL, one case with NHL, one case with B-ALL, one case with MM, one case with MDS, two cases with ATL, and one case with T-ALL) were tested for the induction of cytotoxic T lymphocytes using peptides that were derived from p56^lck protein, SART-1, SART-2, SART-3 and ART-1. The peptides used were the peptides that induced peptide-specific tumor-reactive cytotoxic T lymphocytes from PBMCs of an HLA-A24^+ epithelial cancer patient, which are currently on clinical trials for use as vaccines for epithelial cancer patients. The PBMCs were stimulated with the peptide in vitro to measure the peptide-specific IFN-γ production.

[3] = tested on: C1R-A24 cells pulsed with the peptides; assay: IFN-γ production of PBMCs of vaccinated chronic lymphocytic leukemia patient; type: in vivo, human; conditions: CLL patient No. 1, with the increasing number of peptide vaccination
Text: The patient (patient No. 1 in table 2) subjected to clinical trials was a HLA-A24^+ […] suffering from chronic lymphocytic leukemia with a stage A by Bernet's classification.
(§1) Two kinds of emulsions prepared using these peptides according to the methods described in Example 5 were vaccinated to the patient by injecting subcutaneously at different sites of the patient's lateral thigh.
After each vaccination, PBMCs derived from the patient were studied for the peptide-specific cytotoxic T lymphocyte induction by measuring the amount of IFN-γ production as an indicator against C1R-A24 cells pulsed with the peptides used (see Example 3).

[4] = tested on: C1R-A24 cells pulsed with the peptides; assay: Cytotoxic activity of PBMCs of vaccinated chronic lymphocytic leukemia patient (51Cr-release); type: in vivo, human; conditions: CLL patient No. 1, PBMCs after vaccination, 51Cr-release test
Text: as §1

[5] = tested on: HLA-A24+ hematologic malignant cell line (PEER, REH); assay: 51Cr-release test of peptide-stimulated PBMCs against HLA-A24+ malignant line; type: cell-based, human; conditions: peptide-stimulated patient PBMCs further cultured with IL-2; effector/target 3, 10 or 30; 6 h
Procedure: (§2) Then, the cytotoxicity against hematologic malignant cell lines was examined by a standard ^51Cr-release test (Non-Patent Reference 5). Specifically, the PBMCs obtained were used as an effector to mix with ^51Cr-labelled target cells (hereinafter referred to as targets) at an effector/target rate of 3, 10 or 30, and then incubated for six hours, followed by measuring the radioactivity of ^51Cr released in the supernatants. The results obtained were indicated as % lysis which was calculated by regarding a radioactivity as 100% when the targets were completely dissolved. The following targets were used: PEER, an HLA-A24^+ hematologic malignant cell line; HPB-MLT, an HLA-A24^− hematologic malignant cell line; and an HLA-A24^+ PHA blastoid T-cell.

[6] = tested on: HLA-A24- hematologic malignant cell line (HPB-MLT); assay: 51Cr-release test of peptide-stimulated PBMCs against HLA-A24- malignant line; type: cell-based, human; conditions: peptide-stimulated patient PBMCs further cultured with IL-2; effector/target 3, 10 or 30; 6 h
Procedure: as §2

[7] = tested on: HLA-A24+ PHA blastoid T-cell; assay: 51Cr-release test of peptide-stimulated PBMCs against normal cells; type: cell-based, human; conditions: peptide-stimulated patient PBMCs further cultured with IL-2; effector/target 3, 10 or 30; 6 h
Procedure: as §2

**Q.** Which delayed-type hypersensitivity reaction ([1]; CLL patient No. 1, after the third vaccination) does the source give for VYDYNCHVDL [SART-3109] here?
**A.** The delayed-type hypersensitivity reaction was “delayed-type hypersensitivity reaction was observed”.

**Q.** Which “peptide-specific IFN-γ production” value ([2]; PBMCs of patient #1 CLL) does the source give for “SART-293: SART-2-derived peptide; epithelial cancer-related antigen peptide (DYSARWNEI; Partial peptide of SART-2)” here?
**A.** The value was 0.

**Q.** And the “peptide-specific IFN-γ production” value ([2]; PBMCs of patient #2 CLL)?
**A.** Its value is 440.

**Q.** And the “peptide-specific IFN-γ production” value ([2]; PBMCs of patient #3 MCL)?
**A.** The value was 9.

**Q.** And the “peptide-specific IFN-γ production” value ([2]; PBMCs of patient #4 NHL)?
**A.** The value was 63.

**Q.** And the “peptide-specific IFN-γ production” value ([2]; PBMCs of patient #5 B-ALL)?
**A.** Its value is 20.

**Q.** And the “peptide-specific IFN-γ production” value ([2]; PBMCs of patient #6 MM)?
**A.** Its value is 28.

**Q.** What about the “peptide-specific IFN-γ production” value ([2]; PBMCs of patient #7 MDS) of the same substance?
**A.** The value was 0.

**Q.** What about the “peptide-specific IFN-γ production” value ([2]; PBMCs of patient #8 ATL) of the same substance?
**A.** The value was 0.

**Q.** And the “peptide-specific IFN-γ production” value ([2]; PBMCs of patient #9 ATL)?
**A.** The value was 354.

**Q.** And the “peptide-specific IFN-γ production” value ([2]; PBMCs of patient #10 T-ALL)?
**A.** The value was 192.

**Q.** And the “Responding case/total (enhancement of IFN-γ production)” value ([2]; ten HLA-A24+ patients with hematologic malignancies)?
**A.** Its value is 3/10.

**Q.** What about the “IFN-γ production in response to C1R-A24 cells pulsed with the peptide” value [3] of the same substance?
**A.** The value was “enhanced production of interferon (IFN)-γ”.

**Q.** What about the “cytotoxic activity against peptide-pulsed C1R-A24 cells versus cells pulsed with HIV-derived peptide” value [4] of the same substance?
**A.** Its value is “higher cytotoxic activity”.

**Q.** For TFDYLRSVL [Lck486], which “cytotoxic activity (% lysis) against HLA-A24+ hematologic malignant line” value [5] is on record?
**A.** The value was “significant cytotoxic activity; also recorded: exhibited cytotoxic activity”.

**Q.** And the “cytotoxic activity (% lysis) against HLA-A24- hematologic malignant line” value [6]?
**A.** The value was “did not show cytotoxic activity; also recorded: did not exhibit cytotoxic activity”.

**Q.** What about the “cytotoxic activity (% lysis) against HLA-A24+ PHA blastoid T-cells” value [7] of the same substance?
**A.** The value was “did not show cytotoxic activity; also recorded: did not exhibit cytotoxic activity”.

**Q.** For EYCLKFTKL [ART-1170], which “immediate hypersensitivity reaction in skin test” value ([1]; CLL patient No. 1, before vaccination) is on record?
**A.** The value was “caused immediate hypersensitivity reaction”.
